Results published in paper PMC4357167 (Cancer cell, 2015).

Experiments:
SMO Q477E = SMO Q477E (Homo sapiens, UniProt Q99835, Q477E); experiment: Hedgehog signaling assay; format: cell-based; settings: 100 nM vismodegib and SHH-N ligand
[1] = system: advanced and metastatic BCCs; settings: 2012, cited from earlier work
SMO F460L = SMO F460L (Homo sapiens, UniProt Q99835, F460L); experiment: Hedgehog signaling assay; format: cell-based; settings: SHH-N CM, 100 nM vismodegib
[2] = system: syndromic BCCs in patients with Basal Cell Nevus Syndrome; settings: Gorlin, inherited PTCH1 loss; ref Tang et al., 2012; cited from earlier work
SMO H231R = SMO H231R (Homo sapiens, UniProt Q99835, H231R); experiment: Hedgehog signaling assay; format: cell-based; settings: 100 nM vismodegib and SHH-N ligand
SMO V386A = SMO V386A (Homo sapiens, UniProt Q99835, V386A); experiment: Hedgehog signaling assay; format: cell-based; settings: 100 nM vismodegib and SHH-N ligand
SMO D473G = SMO D473G (Homo sapiens, UniProt Q99835, D473G); experiment: Hedgehog signaling assay; format: cell-based; settings: 100 nM vismodegib and SHH-N ligand
SMO L412F = SMO L412F (Homo sapiens, UniProt Q99835, L412F); experiment: Hedgehog signaling assay; format: cell-based; settings: SHH-N CM, 100 nM vismodegib
SMO V321M = SMO V321M (Homo sapiens, UniProt Q99835, V321M); experiment: Hedgehog signaling assay; format: cell-based; settings: SHH-N CM, 100 nM vismodegib
[3] = system: SMO-LBP and SMO-CA variants; experiment: HH pathway activity; settings: […] nM vismodegib (4-fold greater than IC50), SHH-N CM
SMO Q635E = SMO Q635E (Homo sapiens, UniProt Q99835, Q635E); settings: SHH-N CM, 10, 20 or 80 nM vismodegib
SMO W281C = SMO W281C (Homo sapiens, UniProt Q99835, W281C); experiment: Hedgehog signaling assay; format: cell-based; settings: 100 nM vismodegib and SHH-N ligand
Sequence of SMO W281C (Q99835 28-787 W281C): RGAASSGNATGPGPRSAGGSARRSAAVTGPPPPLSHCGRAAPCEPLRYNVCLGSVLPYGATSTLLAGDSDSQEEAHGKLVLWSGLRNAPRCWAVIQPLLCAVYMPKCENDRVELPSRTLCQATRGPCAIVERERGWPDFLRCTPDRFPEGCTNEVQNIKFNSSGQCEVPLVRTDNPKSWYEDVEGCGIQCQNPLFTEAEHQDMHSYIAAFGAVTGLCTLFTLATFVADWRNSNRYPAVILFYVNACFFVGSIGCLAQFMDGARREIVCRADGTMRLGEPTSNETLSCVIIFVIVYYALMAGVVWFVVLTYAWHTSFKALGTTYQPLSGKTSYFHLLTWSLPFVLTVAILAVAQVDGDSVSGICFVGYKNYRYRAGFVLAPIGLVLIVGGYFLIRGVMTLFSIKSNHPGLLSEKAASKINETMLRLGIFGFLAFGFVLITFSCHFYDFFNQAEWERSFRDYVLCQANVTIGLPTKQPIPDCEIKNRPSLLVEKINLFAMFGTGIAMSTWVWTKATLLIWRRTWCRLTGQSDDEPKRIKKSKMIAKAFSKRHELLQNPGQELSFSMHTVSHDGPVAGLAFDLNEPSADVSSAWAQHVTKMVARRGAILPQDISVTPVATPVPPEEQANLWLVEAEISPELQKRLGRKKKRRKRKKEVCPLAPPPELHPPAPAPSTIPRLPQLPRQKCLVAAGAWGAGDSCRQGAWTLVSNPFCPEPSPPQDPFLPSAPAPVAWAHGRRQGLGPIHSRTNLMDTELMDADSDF

Sequence of SMO H231R (Q99835 28-787 H231R): as the sequence (Q99835 28-787 W281C) above, with H204R, C254W counted along it
Sequence of SMO D473G (Q99835 28-787 D473G): as the sequence (Q99835 28-787 W281C) above, with C254W, D446G counted along it
Sequence of SMO L412F (Q99835 28-787 L412F): as the sequence (Q99835 28-787 W281C) above, with C254W, L385F counted along it
Sequence of SMO F460L (Q99835 28-787 F460L): as the sequence (Q99835 28-787 W281C) above, with C254W, F433L counted along it
Sequence of SMO V321M (Q99835 28-787 V321M): as the sequence (Q99835 28-787 W281C) above, with C254W, V294M counted along it
Sequence of SMO Q477E (Q99835 28-787 Q477E): as the sequence (Q99835 28-787 W281C) above, with C254W, Q450E counted along it
Sequence of SMO Q635E (Q99835 28-787 Q635E): as the sequence (Q99835 28-787 W281C) above, with C254W, Q608E counted along it
Sequence of SMO V386A (Q99835 28-787 V386A): as the sequence (Q99835 28-787 W281C) above, with C254W, V359A counted along it

HH activity (Gli1 mRNA) in the presence of drug (SMO Q477E): retained high levels of HH activity
HH pathway activity, responsiveness to drug (SMO F460L): partially or completely unresponsive
HH activity (Gli1 mRNA) in the presence of drug (SMO H231R): retained high levels of HH activity
HH activity (Gli1 mRNA) in the presence of drug (SMO V386A): response similar to SMO WT
HH activity (Gli1 mRNA) in the presence of drug (SMO D473G): retained high levels of HH activity
HH pathway activity, responsiveness to drug (SMO L412F): partially or completely unresponsive
HH pathway activity, responsiveness to drug (SMO V321M): partially or completely unresponsive
HH activity (Gli1 mRNA) in the presence of drug (SMO W281C): retained high levels of HH activity
Structure (SMILES): CS(=O)(=O)c1ccc(C(=O)Nc2ccc(Cl)c(-c3ccccn3)c2)c(Cl)c1 [vismodegib]
patients developing resistance during the first year ([1]; additional to non-responders, ref Chang and Oro): 20%
overall response rate ([1]; advanced and metastatic BCCs, ref Axelson et al., 2013, Sekulic et al.): 48%
clinical response [2]: respond to vismodegib and have a low rate of acquired resistance
HH pathway activity (Gli1 mRNA) in the presence of SMO variants [3]: partial or complete resistance
HH pathway activity, resistance at low drug concentrations (SMO Q635E): resistance at low but not high vismodegib concentrations
